# Values of other authors, collected in patent US10918126B2, “Isotopically modified compounds and their use as food supplements” (Retrotope, Inc., priority 2006, dated 2021).
# Read-outs that look alike come from different tables or passages of the source.
# How the values were obtained:
# [1] = target: liver alcohol dehydrogenase (ADH); conditions: ethanol oxidation by ADH to acetaldehyde
substance,measurement,setting,value
(1-R)[1-^2H2]— ethanol,kinetic isotope effect D(V/K),[1]; pH 6,3
same,kinetic isotope effect D(V/K),[1]; pH 9,1.5
(1-R)[I—^3H2]— ethanol,kinetic isotope effect T(V/K),[1]; pH 6,6.5
same,kinetic isotope effect T(V/K),[1]; pH 9,2.5
deuterated ethanol,mean value of D(V/K),perfused rat liver,2.89
